# Assay results as given in article PMC5585294, “A potent series targeting the malarial cGMP-dependent protein kinase clears infection and blocks transmission” (Nature Communications, 2017).
# Read-outs that look alike come from different tables or passages of the source.
# Experiments:
# [1] = system: P. falciparum T618Q gatekeeper mutant line; experiment: Hypoxanthine incorporation growth inhibition assay, asexual blood stage, T618Q gatekeeper mutant line; format: cell-based, Plasmodium falciparum; settings: for sensitivity of gatekeeper mutant line compared with wild type (control drugs): tested in parallel on both parasite lines; for EC50 / EC90: T618Q clonal line asexual blood stage growth, 72 h, +/- s.e.m.
# Experimental: We determined that a 72 h P. falciparum (clone 3D7A; obtained from Lisa Ranford Cartwright, University of Edinburgh) growth inhibition assay was necessary for full inhibition to manifest itself and that this is due, most likely to a schizont-specific action rather than a delayed death phenotype as observed for some antibiotic macrocycles. Hypoxanthine incorporation assays[36] were performed on P. falciparum asexual blood stage parasites (wild-type 3D7 or T618Q gatekeeper mutant) to determine EC50 values for test compounds. Mixed staged parasites (primarily rings) were added to 96 well plates containing compounds at concentrations of 50 μM–0.3 nM. [^3H]-Hypoxanthine was added after 48 h to a final concentration of 0.2 μCi. The radioactivity of the labeled hypoxanthine incorporated into the parasite nucleic acids over 24 h was determined relative to untreated controls using a Wallac 1450 Microbeta scintillation counter (Perkin-Elmer). Assays were carried out in triplicate at least twice.
# P. falciparum 3D7 = experiment: Hypoxanthine incorporation growth inhibition assay, asexual blood stage, wild-type 3D7; format: cell-based, Plasmodium falciparum; settings: for EC50: read-out: EC50 WT
# Experimental: Hypoxanthine incorporation assays[36] were performed on P. falciparum asexual blood stage parasites (wild-type 3D7 or T618Q gatekeeper mutant) to determine EC50 values for test compounds. Mixed staged parasites (primarily rings) were added to 96 well plates containing compounds at concentrations of 50 μM–0.3 nM. […] Assays were carried out in triplicate at least twice.
# PfPKG = PfPKG (Plasmodium falciparum, UniProt Q8I719); experiment: Microfluidic mobility shift kinase assay, recombinant PfPKG wild type
# Chain of PfPKG (Q8I719 whole entry): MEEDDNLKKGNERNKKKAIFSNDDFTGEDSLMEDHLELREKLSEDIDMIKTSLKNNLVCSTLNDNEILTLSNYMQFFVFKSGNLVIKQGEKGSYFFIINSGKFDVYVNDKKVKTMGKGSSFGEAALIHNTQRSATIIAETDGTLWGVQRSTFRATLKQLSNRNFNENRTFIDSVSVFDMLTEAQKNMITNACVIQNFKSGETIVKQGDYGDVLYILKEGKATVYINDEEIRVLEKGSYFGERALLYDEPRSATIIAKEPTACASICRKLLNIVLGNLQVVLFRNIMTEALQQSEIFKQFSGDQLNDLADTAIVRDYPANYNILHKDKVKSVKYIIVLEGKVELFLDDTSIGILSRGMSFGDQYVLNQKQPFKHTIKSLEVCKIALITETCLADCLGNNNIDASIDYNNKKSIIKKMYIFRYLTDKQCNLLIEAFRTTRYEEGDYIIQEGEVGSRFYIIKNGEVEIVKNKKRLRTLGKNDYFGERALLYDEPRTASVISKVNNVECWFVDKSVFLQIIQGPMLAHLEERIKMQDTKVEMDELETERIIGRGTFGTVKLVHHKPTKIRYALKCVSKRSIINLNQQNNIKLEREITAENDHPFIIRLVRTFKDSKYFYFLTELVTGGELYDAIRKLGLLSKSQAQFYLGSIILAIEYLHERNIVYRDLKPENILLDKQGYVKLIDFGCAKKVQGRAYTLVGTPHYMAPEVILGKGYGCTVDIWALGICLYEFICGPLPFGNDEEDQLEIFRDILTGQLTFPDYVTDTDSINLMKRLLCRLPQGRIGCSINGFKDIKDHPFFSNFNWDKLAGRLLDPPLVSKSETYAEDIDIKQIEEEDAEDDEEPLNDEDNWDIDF
# Experimental: (§3) Full length PfPKG (NCBI accession code XP_001348520) with native codon usage was cloned into the pTrcHisC plasmid (Life Technologies) that includes an N-terminal His-tag as described previously[8]. […] Recombinant proteins were generated and purified using a protocol based on that described previously[8]. […] 500 ml cultures in LB Rich Broth (containing 50 μg/ml carbenicillin and 34 μg/ml chloramphenicol) were grown in a shaking incubator at 37 °C until reaching an optical density (O.D.) of 0.6–0.7. The temperature was reduced to 16 °C before induction of expression with 1 mM IPTG. Incubation at 16 °C was continued overnight.
# (§4) The cultures were harvested by centrifugation at 4000×g at 4 °C for 30 min, the supernatant removed and the pellet stored at −80 °C for in excess of 1 h. The PKGs were purified via the histidine tag on HiTrap TALON (cobalt) columns (GE Healthcare) connected to an AKTA-FPLC as per the manufacturer's instruction. Fractions were analyzed by SDS-PAGE and the main peak concentrated on 10 kDa MWCO concentrators (Amicon). Purified proteins were stored in 50% glycerol at −80 °C in single use aliquots. The final buffer composition of the purified product was: 50 mM Tris/HCl pH 7.5, 0.1 mM EGTA, 150 mM NaCl, 0.1% β-mercaptoethanol, 50% glycerol, 0.03% Brij-35, 1 mM benzamidine and 0.2 mM PMSF.
# (§5) IC50 values were determined for test compounds using a microfluidic mobility shift assay. Briefly, compounds were prepared over a 10-well ½ log dilution series in dimethyl sulfoxide (DMSO) in duplicate in 50 μl volumes using 384-well polypropylene U-bottomed plates (Thermo Scientific, UK). The plates contained positive/no inhibitor (DMSO only) and negative (no enzyme) controls in columns 1, 2, and 23, 24. […] Samples were pre-incubated at room temperature for 30 min and reactions were initiated by addition of 25 μl ATP mix (10 mM MgCl2 and ATP, at KM of the enzyme under test [20 µM PfPKG and 90 µM PfPKG T618Q], in water). Positive controls were complete reaction mixtures with 10% DMSO and negative controls were reaction mixtures with 10% DMSO but lacking enzyme. Reactions were allowed to proceed for 30 mins at room temperature, corresponding to conversion of approximately 10% of the substrate in the DMSO controls. Reactions were terminated by addition of 50 µl stop solution (25 mM EDTA in water). Samples were analyzed by electrophoretic separation of substrate and product peaks and fluorescence detection using a Caliper Lab Chip EZ reader. (Perkin Elmer, Waltham MA) with 0.2 s sip time, downstream voltage 500 V, upstream voltage 1950 V and pressure 0.5 to 1.5 psi. Substrate and product peak heights were measured and the ratio of the product peak height divided by the sum of the product and substrate peaks were determined using EZ reader software (version 3.0.265.0) to obtain percentage conversion (P) values. […] Liquid handling stages were conducted on a Biomek robotic liquid handler (Beckman Coulter).
# [2] = system: P. falciparum gatekeeper mutant (T618Q) stage V gametocytes; experiment: Gametogenesis (rounding up) assay, T618Q stage V gametocytes; format: cell-based, Plasmodium falciparum; settings: 30 µM xanthurenic acid; 2 µM ML1, 1 µM ML10
# [3] = Stability in human liver microsomes
# Experimental: (§1) Compound mlm hlm mLogD PAMPA HepG2 name (%rem) (%rem) (nm/s) (IC50 µM)
# (§2) Supplementary Table 2. Compound Properties. MLM, HLM, mLogD and PAMPA . mlm (%rem): % of compound remaining after 30 minutes’ incubation with mouse liver microsomes; hlm (%rem): % of compound remaining after 40 minutes’ incubation with human liver microsomes; mLogD: measured LogD at pH 7.4; PAMPA: parallel artificial membrane permeability assay; HepG2: Cytotoxicity assay using HepG2 cells; n.t.: not tested.
# PfPKG T618Q = PfPKG T618Q (Plasmodium falciparum, UniProt Q8I719, T618Q); experiment: Microfluidic mobility shift kinase assay, recombinant PfPKG T618Q gatekeeper mutant
# Chain of PfPKG T618Q (Q8I719 whole entry T618Q): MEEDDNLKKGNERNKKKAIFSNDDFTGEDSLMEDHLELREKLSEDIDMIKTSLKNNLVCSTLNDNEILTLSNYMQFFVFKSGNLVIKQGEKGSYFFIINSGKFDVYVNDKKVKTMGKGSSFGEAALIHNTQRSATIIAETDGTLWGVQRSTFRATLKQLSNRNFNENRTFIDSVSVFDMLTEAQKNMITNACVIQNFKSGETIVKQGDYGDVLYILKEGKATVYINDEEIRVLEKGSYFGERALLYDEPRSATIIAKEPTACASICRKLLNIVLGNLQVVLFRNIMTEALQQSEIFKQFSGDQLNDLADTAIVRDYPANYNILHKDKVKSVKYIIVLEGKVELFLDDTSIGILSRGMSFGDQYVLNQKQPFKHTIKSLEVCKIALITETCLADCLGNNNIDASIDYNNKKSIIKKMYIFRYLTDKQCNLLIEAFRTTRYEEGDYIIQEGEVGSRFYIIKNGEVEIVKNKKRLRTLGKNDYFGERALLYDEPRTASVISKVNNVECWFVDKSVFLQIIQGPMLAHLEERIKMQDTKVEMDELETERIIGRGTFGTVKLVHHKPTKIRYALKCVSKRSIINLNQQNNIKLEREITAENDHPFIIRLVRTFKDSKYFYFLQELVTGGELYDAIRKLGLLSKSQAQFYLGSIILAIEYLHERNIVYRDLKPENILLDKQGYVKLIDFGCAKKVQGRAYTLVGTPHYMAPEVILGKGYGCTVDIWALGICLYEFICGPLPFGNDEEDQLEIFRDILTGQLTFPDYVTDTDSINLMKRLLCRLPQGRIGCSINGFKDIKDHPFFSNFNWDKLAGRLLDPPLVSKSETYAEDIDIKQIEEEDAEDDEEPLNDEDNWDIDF
# Experimental: as §3, §4, §5
# [4] = Cytotoxicity assay using HepG2 cells; settings: human
# Experimental: as §1, §2
# [5] = system: P. falciparum wild-type (3D7) stage V gametocytes; experiment: Gametogenesis (rounding up) assay, wild-type 3D7 stage V gametocytes; format: cell-based, Plasmodium falciparum; settings: 30 µM xanthurenic acid; 2 µM ML1, 1 µM ML10
# Experimental: Plasmodium falciparum clone 3D7A (obtained from Dr Lisa Ranford-Cartwright, University of Edinburgh) gametocytes were initiated and cultured using an adapted version of the traditional Trager and Jenson method modified by Fivelman and colleagues. Stage V gametocytes were purified on a 60% Percoll gradient. Purified parasite samples were diluted in warm complete media (RPMI-1640 (Sigma), 0.5% Albumax (Invitrogen), 0.03% L-glutamine (Sigma), 0.2% Glucose (Sigma), 1× hypoxanthine (Sigma)), to a volume that would allow a final volume of […] per sample and a haematocrit of <10%. […] Control tubes containing DMSO only were kept at 37 °C. All other samples were incubated at room temperature for 30 min immediately after addition of test compounds. Samples were then washed once in warm RPMI followed by removal of the supernatant to leave a final haematocrit of roughly 50%. Samples were smeared on glass slides and fixed in 100% methanol (VWR) then stained for 15 min in 10% Giemsa R66 (VWR) and observed by light microscopy. The number of gametocytes at stage V and rounded up per 900 erythrocytes were counted three consecutive times to produce an average count. Numbers of parasites rounded up were compared to the no drug control.
# P. chabaudi (AS) = experiment: Synchronous P. chabaudi AS model in BALB/c mice; format: in vivo, Plasmodium chabaudi; settings: single daily oral dose 50 mg/kg just prior to schizogony, 4 days
# Experimental: Similar experiments were performed using P. chabaudi AS (from David Walliker, University of Edinburgh) with the following modifications. To allow dosing to be carried out more conveniently during the day, reversal of the light/dark exposure of mice for 2 weeks prior to the experiment was used to switch schizogony from midnight to noon each day. Mice were dosed at different time points in an attempt to have maximal coverage at the point of schizogony. All animal work protocols carried out at LSHTM were approved and licensed by the United Kingdom Home Office as governed by law under the Animals (Scientific Procedures) Act of 1986, in strict accordance with the Code of Practice Part 1 for the housing and care of animals (21 March 2005), available at http://www.homeoffice.gov.uk/science-research/animal-research/
# [6] = system: P. falciparum (NF54) gametocytes; experiment: Standard membrane feeding assay (SMFA), gametocytes fed to Anopheles stephensi; format: cell-based, Plasmodium falciparum; settings: gametocytes pre-incubated 24 h, oocysts counted day 7 post-feed, read-out: IC50 for reduction of the intensity of infection (oocysts)
# Experimental: Mature P. falciparum (NF54) gametocytes (14 day culture, 0.3–0.5% gametocytes, 2% haematocrit) were obtained from an automated tipper system and incubated with compound for 24 h as previously described. Anopheles stephensi (Sind-Kasur Nijmegen strain[39] were reared at 30 °C and 70–80% humidity, while exposed to a 12/12 h day/night cycle. On the day of feeding, the gametocyte culture was adjusted to 50% hematocrit with human red blood cells and human serum and fed to 3–5 day old mosquitoes using a glass membrane mini-feeder system containing 0.35 ml of the P. falciparum culture/compound mix[40]. Unfed and partially fed mosquitoes were removed after feeding and blood fed females were maintained at 26 °C and 70–80% humidity. Up to 20 surviving mosquitoes were collected on day 7 post-infection and oocysts were visualized using a 1% merchurochrome solution and quantified by microscopy. IC50 values were determined by logistic regression using Maximum Likelihood Estimation to find best fit[41].
# [7] = Plasma levels in satellite groups of mice, P. berghei experiment; format: in vivo, mouse; settings: mice, oral 25 mg/kg, P. berghei experiment
# From the text: Supplementary Figure 4. Plasma concentrations over time in rodent malaria models. […] Error bars show the standard deviation. (1 picture or pasted object on this page, not shown here)
# physchem = settings: pH 7.4
# Experimental: as §1, §2
# [8] = Parallel artificial membrane permeability assay (PAMPA); format: in vitro ADME
# From the text: Compound mlm hlm mLogD PAMPA HepG2
# name (%rem) (%rem) (nm/s) (IC50 µM)
# Supplementary Table 2. Compound Properties. MLM, HLM, mLogD and PAMPA . mlm
# [9] = Stability in mouse liver microsomes
# Experimental: as §1, §2
# HepG2 cells = experiment: Cytotoxicity assay using HepG2 cells
# Experimental: as §1, §2
# [10] = system: P. falciparum lab isolate Dd2; experiment: In vitro selection of resistant parasites; format: cell-based, Plasmodium falciparum; settings: 3× EC50, 10^9 parasites, up to Day 60
# Experimental: P. falciparum lab isolate Dd2 (from stocks held at LSHTM) was used for this experiment and the control compound used was atovaquone. Parasites were plated in triplicate at 10^9 parasites/well and maintained until parasites were observed microscopically (using Giemsa-stained blood films) or until Day 60 whichever was the soonest. […]. Gametocytes were present initially but were absent from Day 11.
# [11] = Plasmodium falciparum, 3D7, 72 h, 3D7 asexual blood stage growth, 72 h, +/- s.e.m.
# [12] = Plasmodium falciparum, 3D7, 72 h
# [13] = % of compound remaining after 40 minutes' incubation
# [14] = read-out: IC50 WT, recombinant full length 6His-tagged PfPKG, ATP at KM (20 µM), +/- s.e.m.
# [15] = read-out: IC50 T618Q, recombinant PfPKG T618Q, ATP at KM (90 µM), +/- s.e.m.
# [16] = 3D7 asexual blood stage growth, 72 h, +/- s.e.m.
SMILES,mLogD (physchem),PAMPA [8] [×10⁻⁶ cm/s],EC50 [1] [µM],EC90 [1] [µM],"mlm (%rem) ([9]; mouse, microsomes, 0.5 h) [%]",IC50 (PfPKG; [14]) [µM],"hlm (%rem) ([3]; human, microsomes, 40 min) [%]",IC50 (PfPKG T618Q; [15]) [µM],EC90 (P. falciparum 3D7; [16]) [µM],EC50 (P. falciparum 3D7; [16]) [µM],IC50 (HepG2 cells) [µM],further results
"C[C@@H]1CC[C@H]2[C@@H](C)C(=O)O[C@@H]3O[C@@]4(C)CC[C@@H]1[C@]32OO4 [Artemisinin, reference compound]",,,,,,,,,,,,sensitivity of gatekeeper mutant line compared with wild type (control drugs) [1]: equivalent levels of inhibition of both parasite lines; EC50 (P. falciparum 3D7; [11]): 0.0252 ± 0.0015 µM
"CCN(CC)CCCC(C)Nc1ccnc2cc(Cl)ccc12 (centres unmarked) [Chloroquine, reference compound]",,,,,,,,,,,,sensitivity of gatekeeper mutant line compared with wild type (control drugs) [1]: equivalent levels of inhibition of both parasite lines; EC50 (P. falciparum 3D7; [12]): 0.0162 ± 0.0012 µM
"CN(C)Cc1ccn2c(-c3ccnc(N)n3)c(-c3ccc(F)cc3)nc2c1 [ML1, 4-[7-[(dimethylamino)methyl]-2-(4-fluorophenyl)imidazo[1,2-a]pyridine-3-yl]pyrimidin-2-amine, reference compound]",2.4,,,,,,,,,,,"IC50 (PfPKG): 0.0031 µM; rounding up of T618Q gametocytes [2]: insensitive; hlm (%rem) [3, 13]: 70%; IC50 (PfPKG T618Q): 8.44 µM; IC50 [4]: > 20 µM; EC50 (P. falciparum 3D7; [12]): 0.395 µM; rounding up of wild-type gametocytes [5]: blocked rounding up; reduction in blood stage parasitaemia (P. chabaudi (AS)): 67.9%; IC50 ([6]; Plasmodium falciparum, NF54): 0.507 µM; half-life ([7]; BALB/c, mouse, in vivo, read-out: plasma half-life (converted)): 1.1 h"
Fc1ccc(-c2nc3ccccn3c2-c2ccnc(Nc3ccc(N4CCNCC4)cc3)n2)cc1 [ML2],3.1,0,0.14,0.956,100,0.00171,100,1.71,0.628,0.197,,
CN(C)Cc1ccn2c(-c3ccnc(Nc4ccc(N5CCNCC5)cc4)n3)c(-c3ccc(F)cc3)nc2c1 [ML3],2.2,6.62,0.195,0.279,,0.00079,,0.842,0.236,0.0634,,"mlm (%rem) ([9]; % of compound remaining after 30 minutes' incubation): 89%; hlm (%rem) [3, 13]: 62%; IC50 (HepG2 cells; read-out: HepG2 (IC50 M), cytotoxicity): 1.9 µM"
Cc1cn2c(-c3ccnc(Nc4ccc(N5CCNCC5)cc4)n3)c(-c3ccc(F)cc3)nc2cc1CN(C)C [ML4],2.8,3.71,0.107,0.186,84,0.00045,31,0.231,0.107,0.0253,1.9,reduction in blood stage parasitaemia (P. chabaudi (AS)): 56.5%; IC50 [6]: 0.0616 µM; plasma half-life [7]: 1.0 h
CN(C)Cc1ccn2c(-c3ccnc(N)n3)c(-c3cccc(S(C)(=O)=O)c3)nc2c1 [ML5],1.5,1.77,12.7,61.5,96,0.00088,96,> 100,0.445,0.329,> 20,
CN(C)Cc1ccn2c(-c3ccnc(NCC4CC4)n3)c(-c3cccc(S(C)(=O)=O)c3)nc2c1 [ML6],2.3,11.45,1.85,3.49,62,0.00013,72,52.5,0.142,0.102,> 20,
CN(C)Cc1ccn2c(-c3ccnc(N)n3)c(-c3cccc(NS(C)(=O)=O)c3)nc2c1 [ML7],1.6,0.64,35.1,60.7,96,0.00434,82,> 100,0.633,0.489,> 20,
CN(C)Cc1ccn2c(-c3ccnc(N)n3)c(-c3ccc(F)c(NS(C)(=O)=O)c3)nc2c1 [ML8],0.8,0.2,5.57,31,97,0.00079,91,73.7,0.182,0.148,> 20,
Cc1cn2c(-c3ccnc(N)n3)c(-c3ccc(F)c(NS(C)(=O)=O)c3)nc2cc1CN(C)C [ML9],1.6,1.08,6.9,48.3,81,0.00119,86,> 100,0.158,0.105,,
"CCc1nc(N)nc(N)c1-c1ccc(Cl)cc1 [Pyrimethamine, reference compound]",,,,,,,,,,,,sensitivity of gatekeeper mutant line compared with wild type (control drugs) [1]: resistant; EC50 (P. falciparum 3D7; [11]): 0.0433 ± 0.0059 µM
O=C1C(O)=C([C@H]2CC[C@H](c3ccc(Cl)cc3)CC2)C(=O)c2ccccc21 [atovaquone],,,,,,,,,,,,selection of resistant parasites [10]: readily selected
